ChEMBL document CHEMBL1201862, “PubChem BioAssay data set” (2004)
Calls of active or inactive are those of the source.

What was measured:
[1] = target: Sphingosine 1-phosphate receptor 2 (Homo sapiens, UniProt O95136); assay: Dose Response Cell Based Assay for Agonists of the S1P2 Receptor of Purchased Analogues. [Related pubchem assays: 729, 843, 854, 736 ]; format: functional
[2] = enhancers of respiration in Yfh1-depleted yeast, dose response, Friedreich's ataxia, plus single-dose screen (AID 1465); format: functional;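 further: yeast depleted of Yfh1p frataxin homolog grown on glycerol needing respiration; WST-1 tetrazolium dye reduction as measure of cellular dehydrogenase metabolic activity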
[3] = system: HeLa; assay: Cytotoxicity counterscreen assay for transcriptional activators of heat shock protein 70 (Hsp70). [Related pubchem assays: 1203, 1252 ]; format: functional; conditions: Homo sapiens;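 further: cells exposed to compound for 16 hours before readout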
[4] = target: T1, Microphthalmia-associated transcription factor (Homo sapiens, UniProt O75030); assay: TRPM1 promoter luciferase signal decrease, dose response, MITF inhibitor project, cell-based, SK-MEL-5, cherry-picked, set 3 (AID 493073); format: functional
T1 sequence (O75030 whole entry): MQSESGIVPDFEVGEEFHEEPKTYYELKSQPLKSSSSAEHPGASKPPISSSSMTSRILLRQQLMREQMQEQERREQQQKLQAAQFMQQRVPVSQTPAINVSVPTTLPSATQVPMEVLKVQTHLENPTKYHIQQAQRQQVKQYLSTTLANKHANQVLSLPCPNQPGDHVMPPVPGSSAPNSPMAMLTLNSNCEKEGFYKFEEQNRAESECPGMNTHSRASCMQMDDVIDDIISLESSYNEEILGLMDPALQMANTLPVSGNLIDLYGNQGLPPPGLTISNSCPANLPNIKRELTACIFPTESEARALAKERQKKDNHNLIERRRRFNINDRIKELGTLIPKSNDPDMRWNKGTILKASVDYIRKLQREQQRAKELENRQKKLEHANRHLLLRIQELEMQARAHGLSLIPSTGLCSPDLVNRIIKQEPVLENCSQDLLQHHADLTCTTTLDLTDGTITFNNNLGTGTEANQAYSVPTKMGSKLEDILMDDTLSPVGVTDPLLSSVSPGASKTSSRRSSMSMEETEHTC

[5] = Shn3 3'UTR reporter inhibitors, dose response, cell-based, Clone20 osteoblasts, firefly luciferase, cherry-picked (AID 624132); format: functional;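 further: firefly luciferase luminescence from reporter carrying the Shn3 3'UTR in osteoblasts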
[6] = HepG2 cell cytotoxicity, dose response, cytotoxicity control for Shn3 inhibitor project, CellTiter-Glo, cherry-picked (AID 624134); format: functional, cell-based
[7] = control 3'UTR Renilla luciferase suppression, dose response, counter-screen for Shn3 inhibitor project, cell-based, Clone20-Shn3RL, cherry-picked (AID 624133); format: functional
[8] = A549 cell cytotoxicity, dose response, cytotoxicity control, cherry-picks, 26 µM top dose (AID 1053119); format: functional, cell-based
[9] = target: T2, Streptokinase A (Streptococcus pyogenes serotype M1, UniProt P10520); assay: Absorbance Microorganism-Based Dose Response Follow up to Identify Inhibitors of Streptokinase Expression. [Related pubchem assays: 1677 (Project Summary), 1915, 1914, 1902 (Retest at Dose), 1900 (Counter Screen), 1662 (Primary HTS)]; format: functional, Streptococcus pyogenes M1 GAS
T2 sequence (P10520 whole entry): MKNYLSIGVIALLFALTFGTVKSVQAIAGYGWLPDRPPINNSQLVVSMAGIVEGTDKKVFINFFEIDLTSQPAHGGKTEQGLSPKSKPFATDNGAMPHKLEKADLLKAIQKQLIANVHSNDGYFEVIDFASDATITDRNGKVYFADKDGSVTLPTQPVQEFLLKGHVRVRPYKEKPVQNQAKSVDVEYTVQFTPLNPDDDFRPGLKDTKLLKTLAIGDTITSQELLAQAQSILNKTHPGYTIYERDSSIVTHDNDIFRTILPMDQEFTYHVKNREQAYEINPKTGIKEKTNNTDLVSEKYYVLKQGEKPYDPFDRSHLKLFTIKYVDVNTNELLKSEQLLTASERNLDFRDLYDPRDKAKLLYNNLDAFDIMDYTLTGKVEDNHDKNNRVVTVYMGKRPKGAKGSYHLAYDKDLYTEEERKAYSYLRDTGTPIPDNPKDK

[10] = system: Streptococcus; assay: Streptococcus pyogenes growth inhibition counter-screen, dose response, counter-screen for streptokinase expression inhibitor project, luminescence, BacTiter-Glo, strain UMAA2166 (AID 2477); format: functional, organism-based
[11] = target: NADPH oxidase 1 (Homo sapiens, UniProt Q9Y5S8); format: functional, cell-based;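 further: Cell-based assay with luminescence read-out, IC50 derived from inhibitor dose-response curves; intracellular ROS from endogenous NOX1 in intact HT29 colon cancer cells; potency of inhibitors that lower the ROS luminescence signal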
Chain of NADPH oxidase 1 (Q9Y5S8 whole entry): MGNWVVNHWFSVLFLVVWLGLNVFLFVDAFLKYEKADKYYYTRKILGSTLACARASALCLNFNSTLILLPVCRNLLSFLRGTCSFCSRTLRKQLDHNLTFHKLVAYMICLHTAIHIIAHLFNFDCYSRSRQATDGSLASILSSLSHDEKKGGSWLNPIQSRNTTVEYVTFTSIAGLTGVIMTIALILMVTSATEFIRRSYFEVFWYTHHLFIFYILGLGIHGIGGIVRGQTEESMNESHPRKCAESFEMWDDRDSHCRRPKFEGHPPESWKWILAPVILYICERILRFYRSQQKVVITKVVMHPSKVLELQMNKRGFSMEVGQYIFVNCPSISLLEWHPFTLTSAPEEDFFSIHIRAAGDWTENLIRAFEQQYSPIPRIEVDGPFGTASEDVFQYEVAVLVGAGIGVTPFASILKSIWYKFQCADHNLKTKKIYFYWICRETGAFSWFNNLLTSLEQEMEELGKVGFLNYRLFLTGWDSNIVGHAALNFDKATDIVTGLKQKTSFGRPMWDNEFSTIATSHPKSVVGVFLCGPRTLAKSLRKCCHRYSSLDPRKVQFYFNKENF

[12] = M. tuberculosis H37Rv growth inhibitors, H37Rv strain (AID 1626); format: functional
[13] = target: Troponin, cardiac muscle (Homo sapiens, UniProt P19429+P45379+P63316); assay: Fluorescence-based biochemical high throughput dose response assay for activators of the calcium sensitivity of cardiac Regulated Thin Filaments (RTF). [Related pubchem assays (depositor defined):AID493008, AID493018, AID504382, AID504383]; format: protein-complex assay
[14] = target: T3, Short transient receptor potential channel 4 (Mus musculus, UniProt Q9QUQ5); assay: mouse TRPC4 channel activators, dose response, cell-based, HEK293 TRPC4/mu-opioid, Fluo-4 calcium (AID 434937); format: functional
T3 sequence (Q9QUQ5 whole entry): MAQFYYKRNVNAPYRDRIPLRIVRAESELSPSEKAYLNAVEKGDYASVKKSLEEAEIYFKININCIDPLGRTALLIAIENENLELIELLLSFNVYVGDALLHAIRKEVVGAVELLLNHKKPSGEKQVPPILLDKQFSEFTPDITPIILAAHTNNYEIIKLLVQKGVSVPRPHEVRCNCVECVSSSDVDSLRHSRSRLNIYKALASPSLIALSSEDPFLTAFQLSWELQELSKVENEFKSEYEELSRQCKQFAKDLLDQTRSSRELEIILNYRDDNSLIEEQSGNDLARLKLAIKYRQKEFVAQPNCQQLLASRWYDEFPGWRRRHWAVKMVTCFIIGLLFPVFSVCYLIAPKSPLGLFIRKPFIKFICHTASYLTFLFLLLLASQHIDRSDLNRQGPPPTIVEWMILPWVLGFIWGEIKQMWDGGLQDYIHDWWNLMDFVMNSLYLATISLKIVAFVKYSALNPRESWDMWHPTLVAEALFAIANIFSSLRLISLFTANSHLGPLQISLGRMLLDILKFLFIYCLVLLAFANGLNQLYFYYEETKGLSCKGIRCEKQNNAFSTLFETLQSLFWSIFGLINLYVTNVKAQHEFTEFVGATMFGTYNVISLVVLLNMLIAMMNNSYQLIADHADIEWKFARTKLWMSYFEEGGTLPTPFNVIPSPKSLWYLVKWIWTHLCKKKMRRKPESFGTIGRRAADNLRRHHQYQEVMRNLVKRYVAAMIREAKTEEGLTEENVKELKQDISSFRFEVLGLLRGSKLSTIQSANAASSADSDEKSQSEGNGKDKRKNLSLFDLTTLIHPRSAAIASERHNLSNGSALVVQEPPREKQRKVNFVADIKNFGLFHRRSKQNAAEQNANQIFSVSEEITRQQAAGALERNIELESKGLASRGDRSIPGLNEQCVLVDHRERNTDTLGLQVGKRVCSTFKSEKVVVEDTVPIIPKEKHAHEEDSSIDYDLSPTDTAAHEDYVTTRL

[15] = Luminescence-based counterscreen assay for KLF5 inhibitors: dose response cell-based high throughput screening assay to identify cytotoxic compounds using the IEC-6 intestinal epithelial cell line. [Related pubchem assays: 1700 (Primary screen.), 1834 (Confirmation screen.), 1858 (Summary AID.), 1905 (Counterscreen.)]; format: functional

Chain of Sphingosine 1-phosphate receptor 2 (O95136 whole entry): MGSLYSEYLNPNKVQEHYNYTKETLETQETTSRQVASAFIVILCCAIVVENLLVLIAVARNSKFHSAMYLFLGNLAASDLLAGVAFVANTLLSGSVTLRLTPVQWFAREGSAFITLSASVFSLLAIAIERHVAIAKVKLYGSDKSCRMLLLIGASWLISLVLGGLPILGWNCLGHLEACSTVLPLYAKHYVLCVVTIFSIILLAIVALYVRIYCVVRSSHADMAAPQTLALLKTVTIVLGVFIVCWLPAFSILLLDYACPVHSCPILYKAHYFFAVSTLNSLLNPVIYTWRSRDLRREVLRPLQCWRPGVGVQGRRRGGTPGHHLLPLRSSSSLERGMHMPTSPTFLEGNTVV

For `Cc1cc(C(=O)CSc2nnnn2C2CC2)c(C)n1Cc1ccccc1`, which EC50 [1] is on record?
The EC50 was > 30 µM (not active).

With `Cn1cccc1/C=C1/SC(=S)N(CC(=O)O)C1=O` as the molecule, how does the EC50 [2] read?
Its EC50 is > 100 µM (active).

What does the source list for `CS(=O)(=O)N1CCN(c2ccc(NC(=O)c3ccc([N+](=O)[O-])o3)cc2)CC1`?
CC50 [3]: 4.95 µM (active); AC50 [4]: 4.92 µM (active); AC50 [5]: 5.65 µM (active); AC50 [6]: 64.6 µM (active); AC50 [7]: 7.78 µM (active); AC50 [8]: 49.3 µM (active)

For `COc1ccc(Sc2ccc(NC(=O)c3cccc(Cl)c3)cc2C#N)cc1`, which EC50 [9] is on record?
Its EC50 is 8.99 µM (active).

What about the EC50 [10] of the same molecule?
Its EC50 is > 500 µM (not active).

Which IC50 [11] does the source give for `COc1ccc(-c2nc(-c3ccccc3)c(-c3ccccc3)[nH]2)cc1O` here?
Its IC50 is > 17 µM (not active).

For `CC(C)(C)C(=O)/C=c1\s/c(=C\c2ccc(-c3ccc([N+](=O)[O-])cc3)o2)c(=O)n1CC(=O)NC(N)=O`, which IC50 [12] is on record?
Its IC50 is > 100 µM (active).

And the EC50 [13]?
The EC50 was 0.565 µM (active).

And the EC50 [14]?
Its EC50 is 5.31 µM (active).

Which IC50 [15] does the source give for `CCOC(=O)c1sc(NC(=O)c2sc(C)nc2C)nc1C` here?
The IC50 was > 39.8 µM (not active).
